This assay addresses Glutamate receptor ionotropic, kainate (Rattus norvegicus) (UniProt P22756+Q01812+P42260+P42264+Q63273). The assay is described as follows: Compound was evaluated for the inhibition of kainate receptor binding at 10 uM. It counts as protein-complex assay.

For `C=C(C)[C@H]1CN[C@H](C(=O)O)[C@H]1CP(=O)(O)O`, the inhibition (usually the change of the read-out against control, counted positive when it falls) was found to be 77%.
